From ChEMBL document CHEMBL3867421, “The action mechanism of daptomycin” (Bioorg Med Chem, 2016)
Values after ≈ are worked out from the molar mass of the structure shown.

Assays:
Bacillus spizizenii = assay: Antibacterial activity against Bacillus subtilis ATCC 6633 incubated overnight by broth dilution method; assay type: functional
Bacillus subtilis [1] = assay: Antibacterial activity against Bacillus subtilis relative to daptomycin; assay type: functional
Bacillus subtilis [2] = assay: Antibacterial activity against Bacillus subtilis PY79 after 18 hrs by two-fold serial dilution method relative to daptomycin; assay type: functional
Staphylococcus aureus [3] = assay: Antibacterial activity against Staphylococcus aureus relative to daptomycin; assay type: functional
[4] = Membrane permeabilization activity in DOPC/DOPG large unilamellar liposomes assessed as leakage of calcein at 16 ug/ml; assay type: ADME
[5] = Membrane permeabilization activity in DOPC/DOPG large unilamellar liposomes assessed as leakage of calcein at 30 ug/ml preincubated with CaCl2 for 1 hr prior to testing; assay type: ADME
[6] = Protein binding in human plasma by UV/HPLC analysis; assay type: ADME, cell-free; conditions: read-out: PPB (converted)
Staphylococcus aureus [7] = assay: Antibacterial activity against vancomycin sensitive Staphylococcus aureus JKD6004 by microbroth dilution assay; assay type: functional
Staphylococcus aureus [8] = assay: Antibacterial activity against Staphylococcus aureus JKD6004 harboring WalR K208R mutant by microbroth dilution assay; assay type: functional
Bacillus subtilis [9] = assay: Antibacterial activity against Bacillus subtilis ATCC 1046 incubated overnight by broth dilution method; assay type: functional
Enterococcus faecium = assay: Antibacterial activity against Enterococcus faecium 14 by broth microdilution assay relative to daptomycin; assay type: functional
Staphylococcus aureus [10] = assay: Antibacterial activity against Staphylococcus aureus 42 by broth microdilution assay relative to daptomycin; assay type: functional
Enterococcus faecalis = assay: Antibacterial activity against Enterococcus faecalis 201 by broth microdilution assay relative to daptomycin; assay type: functional

Which MIC (Bacillus spizizenii) does the source give for `CCCCCCCCCC(=O)N[C@@H](Cc1c[nH]c2ccccc12)C(=O)N[C@H](CC(N)=O)C(=O)N[C@@H](CC(=O)O)C(=O)N[C@@H]1C(=O)NCC(=O)N[C@@H](CCCNc2ccc([N+](=O)[O-])c3nonc23)C(=O)N[C@@H](CC(=O)O)C(=O)N[C@H](C)C(=O)N[C@@H](CC(=O)O)C(=O)NCC(=O)N[C@H](CO)C(=O)N[C@@H]([C@@H](C)CC(=O)O)C(=O)N[C@@H](CC(=O)c2ccccc2N)C(=O)O[C@@H]1C` here?
The MIC was 3 µg/mL (≈ 1.68 µM).

For `CCCCCCCCCC(=O)N[C@@H](Cc1c[nH]c2ccccc12)C(=O)N[C@H](CC(N)=O)C(=O)N[C@@H](CC(=O)O)C(=O)N[C@@H]1C(=O)NCC(=O)N[C@@H](CCCN)C(=O)N[C@@H](CC(=O)O)C(=O)N[C@H](CC(N)=O)C(=O)N[C@@H](CC(=O)O)C(=O)NCC(=O)N[C@H](CO)C(=O)N[C@@H](CCC(=O)O)C(=O)N[C@@H](CC(=O)c2ccccc2N)C(=O)O[C@@H]1C`, which “fold change (FC)” value (Bacillus subtilis [1]) is on record?
The value was 256.

Which “fold change (FC)” value (Bacillus subtilis [2]) does the source give for `CCCCCCCCCC(=O)N[C@@H](Cc1c[nH]c2ccccc12)C(=O)N[C@@H](CC(N)=O)C(=O)N[C@@H](CC(=O)O)C(=O)N[C@@H]1C(=O)NCC(=O)N[C@@H](CCCCN)C(=O)N[C@@H](CC(=O)O)C(=O)N[C@H](C)C(=O)N[C@@H](CC(=O)O)C(=O)NCC(=O)N[C@H](CO)C(=O)N[C@@H](CCC(=O)O)C(=O)N[C@@H](Cc2c[nH]c3ccccc23)C(=O)O[C@@H]1C` here?
Its value is 33.

For `CCCCCCCCCC(=O)N[C@@H](Cc1c[nH]c2ccccc12)C(=O)N[C@@H](CC(N)=O)C(=O)N[C@@H](CC(=O)O)C(=O)N[C@@H]1C(=O)NCC(=O)N[C@@H](CCCN)C(=O)N[C@@H](CC(=O)O)C(=O)N[C@H](C)C(=O)N[C@@H](CC(=O)O)C(=O)NCC(=O)N[C@H](CC(=O)O)C(=O)N[C@@H](CCC(=O)O)C(=O)N[C@@H](CC(=O)c2ccccc2N)C(=O)O[C@@H]1C`, which “fold change (FC)” value (Bacillus subtilis [2]) is on record?
The value was over 100.

With `CCCCCCCCCC(=O)N[C@@H](Cc1c[nH]c2ccccc12)C(=O)N[C@H](CC(N)=O)C(=O)N[C@@H](CC(=O)O)C(=O)N[C@H]1CNC(=O)[C@H](CC(=O)c2ccccc2N)NC(=O)[C@H](CCC(=O)O)NC(=O)[C@@H](CO)NC(=O)CNC(=O)[C@H](CC(=O)O)NC(=O)[C@@H](C)NC(=O)[C@H](CC(=O)O)NC(=O)[C@H](CCCN)NC(=O)CNC1=O` as the molecule, how does the “fold change (FC)” value (Staphylococcus aureus [3]) read?
The value was 200.

Which MIC (Bacillus spizizenii) does the source give for `CCCCCCCCCC(=O)N[C@@H](Cc1c[nH]c2ccccc12)C(=O)N[C@H](CC(N)=O)C(=O)N[C@@H](CC(=O)O)C(=O)N[C@@H]1C(=O)NCC(=O)N[C@@H](CCCNC(=N)CCCSCCC(=O)c2ccc3cc(N(C)C)ccc3c2)C(=O)N[C@@H](CC(=O)O)C(=O)N[C@H](C)C(=O)N[C@@H](CC(=O)O)C(=O)NCC(=O)N[C@H](CO)C(=O)N[C@@H]([C@@H](C)CC(=O)O)C(=O)N[C@@H](CC(=O)c2ccccc2N)C(=O)O[C@@H]1C` here?
Its MIC is 10 µg/mL (≈ 5.14 µM).

With `CCCCCCCCCC(=O)N[C@@H](Cc1c[nH]c2ccccc12)C(=O)N[C@H](CC(N)=O)C(=O)N[C@@H](CC(=O)O)C(=O)N[C@@H]1C(=O)NCC(=O)N[C@@H](CCCN)C(=O)N[C@@H](CC(=O)O)C(=O)N[C@H](C)C(=O)N[C@@H](CC(=O)O)C(=O)NCC(=O)N[C@H](CO)C(=O)N[C@@H]([C@H](C)CC(=O)O)C(=O)N[C@@H](Cc2ccc(O)cc2)C(=O)O[C@@H]1C` as the molecule, how does the “fold change (FC)” value (Bacillus subtilis [2]) read?
The value was 47.

Which Activity [4] does the source give for `CCCCCCCCCC(=O)N[C@@H](Cc1c[nH]c2ccccc12)C(=O)N[C@H](CC(N)=O)C(=O)N[C@@H](CC(=O)O)C(=O)N[C@@H]1C(=O)NCC(=O)N[C@@H](CCCN)C(=O)N[C@@H](CC(=O)O)C(=O)N[C@H](C)C(=O)N[C@@H](CC(=O)O)C(=O)NCC(=O)N[C@H](CO)C(=O)N[C@@H]([C@H](C)CC(=O)O)C(=O)N[C@@H](CC(=O)c2ccccc2N)C(=O)O[C@@H]1C` [DAPTOMYCIN] here?
Its Activity is under 10%.

What about the Activity [5] of the same molecule?
Its Activity is 100%.

And the fraction unbound [6]?
The fraction unbound was 0.1.

Which “fold change (FC)” value (Bacillus subtilis [1]) does the source give for `CCCCCCCCCC(=O)N[C@@H](Cc1c[nH]c2ccccc12)C(=O)N[C@H](CC(N)=O)C(=O)N[C@@H](CC(=O)O)C(=O)N[C@@H]1C(=O)NCC(=O)N[C@@H](CCCN)C(=O)N[C@@H](CC(=O)O)C(=O)N[C@H](C)C(=O)N[C@@H](CC(=O)O)C(=O)NCC(=O)N[C@H](CC(N)=O)C(=O)N[C@@H]([C@H](C)CC(=O)O)C(=O)N[C@@H]([C@@H](C)CC)C(=O)O[C@@H]1C` here?
Its value is 8.

For `CCCCCCCCCC(=O)N[C@@H](Cc1c[nH]c2ccccc12)C(=O)N[C@H](CC(N)=O)C(=O)N[C@@H](CC(=O)O)C(=O)N[C@H]1CNC(=O)[C@H](Cc2c[nH]c3ccccc23)NC(=O)[C@H](CCC(=O)O)NC(=O)[C@@H](CO)NC(=O)CNC(=O)[C@H](CC(=O)O)NC(=O)[C@@H](C)NC(=O)[C@H](CC(=O)O)NC(=O)[C@H](CCCN)NC(=O)CNC1=O`, which “fold change (FC)” value (Staphylococcus aureus [3]) is on record?
Its value is 100.

With `CCCCCCCCCC(=O)N[C@@H](Cc1c[nH]c2ccccc12)C(=O)N[C@H](CC(N)=O)C(=O)N[C@@H](CC(=O)O)C(=O)N[C@@H]1C(=O)NCC(=O)N[C@@H](CCCNC(=O)Cc2c(C)c3cc(S(=O)(=O)O)c(N)cc3oc2=O)C(=O)N[C@@H](CC(=O)O)C(=O)N[C@H](C)C(=O)N[C@@H](CC(=O)O)C(=O)NCC(=O)N[C@H](CO)C(=O)N[C@@H]([C@@H](C)CC(=O)O)C(=O)N[C@@H](CC(=O)c2ccccc2N)C(=O)O[C@@H]1C` as the molecule, how does the MIC (Bacillus spizizenii) read?
The MIC was 12 µg/mL (≈ 6.26 µM).

With `CCCCCCCCCC(=O)N[C@@H](Cc1c[nH]c2ccccc12)C(=O)N[C@@H](CC(N)=O)C(=O)N[C@@H](CC(=O)O)C(=O)N[C@@H]1C(=O)NCC(=O)N[C@@H](CCCN)C(=O)N[C@@H](CC(=O)O)C(=O)N[C@H](C)C(=O)N[C@@H](CC(=O)O)C(=O)NCC(=O)N[C@H](CO)C(=O)N[C@@H](CCC(N)=O)C(=O)N[C@@H](CC(=O)c2ccccc2N)C(=O)O[C@@H]1C` as the molecule, how does the “fold change (FC)” value (Bacillus subtilis [2]) read?
Its value is 10.

With `CCCCCCCCCC(=O)N[C@@H](Cc1c[nH]c2ccccc12)C(=O)N[C@H](CC(N)=O)C(=O)N[C@@H](CC(=O)O)C(=O)N[C@@H]1C(=O)NCC(=O)N[C@@H](CCCN)C(=O)N[C@@H](CC(=O)O)C(=O)N[C@H](CC(N)=O)C(=O)N[C@@H](CC(=O)O)C(=O)NCC(=O)N[C@H](CO)C(=O)N[C@@H]([C@H](C)CC(=O)O)C(=O)N[C@@H]([C@@H](C)CC)C(=O)O[C@@H]1C` as the molecule, how does the “fold change (FC)” value (Bacillus subtilis [1]) read?
The value was 32.

With `CCCCCCCCCC(=O)N[C@@H](Cc1c[nH]c2ccccc12)C(=O)N[C@@H](CC(N)=O)C(=O)N[C@@H](CC(=O)O)C(=O)N[C@@H]1C(=O)NCC(=O)N[C@@H](CCCN)C(=O)N[C@@H](CC(=O)O)C(=O)N[C@H](C)C(=O)N[C@@H](CC(=O)O)C(=O)NCC(=O)N[C@H](CO)C(=O)N[C@@H]([C@H](C)CC(=O)O)C(=O)N[C@@H](CC(=O)c2ccccc2N)C(=O)O[C@@H]1C` [DAPTOMYCIN] as the molecule, how does the MIC (Staphylococcus aureus [7]) read?
Its MIC is 0.5 µg/mL (≈ 0.309 µM).

What about the MIC (Staphylococcus aureus [8]) of the same molecule?
Its MIC is 2 µg/mL (≈ 1.23 µM).

With `CCCCCCCCCC(=O)N[C@@H](Cc1c[nH]c2ccccc12)C(=O)N[C@H](CC(N)=O)C(=O)N[C@@H](CC(=O)O)C(=O)N[C@@H]1C(=O)NCC(=O)N[C@@H](CCCN)C(=O)N[C@@H](CC(=O)O)C(=O)N[C@H](CC(N)=O)C(=O)N[C@@H](CC(=O)O)C(=O)NCC(=O)N[C@H](CO)C(=O)N[C@@H]([C@H](C)CC(=O)O)C(=O)N[C@@H](CC(=O)c2ccccc2N)C(=O)O[C@@H]1C` as the molecule, how does the “fold change (FC)” value (Bacillus subtilis [1]) read?
The value was 16.

Which MIC (Bacillus subtilis [9]) does the source give for `C[C@H]1NC(=O)[C@H](CC(=O)O)NC(=O)[C@H](CCCN)NC(=O)CNC(=O)[C@@H](NC(=O)[C@H](CC(=O)O)NC(=O)[C@@H](CC(N)=O)NC(=O)[C@H](Cc2c[nH]c3ccccc23)NC(=O)CCCc2cc3cccc4c5cccc6cccc(c(c2)c34)c65)[C@@H](C)OC(=O)[C@H](CC(=O)c2ccccc2N)NC(=O)[C@H]([C@@H](C)CC(=O)O)NC(=O)[C@@H](CO)NC(=O)CNC(=O)[C@H](CC(=O)O)NC1=O` here?
Its MIC is 3 µg/mL (≈ 1.68 µM).

Which “fold change (FC)” value (Bacillus subtilis [1]) does the source give for `CCCCCCCCCC(=O)N[C@@H](Cc1c[nH]c2ccccc12)C(=O)N[C@H](CC(N)=O)C(=O)N[C@@H](CC(=O)O)C(=O)N[C@@H]1C(=O)NCC(=O)N[C@@H](CCCN)C(=O)N[C@@H](CC(=O)O)C(=O)N[C@H](C)C(=O)N[C@@H](CC(=O)O)C(=O)NCC(=O)N[C@H](CC(N)=O)C(=O)N[C@@H](CCC(=O)O)C(=O)N[C@@H](CC(=O)c2ccccc2N)C(=O)O[C@@H]1C` here?
Its value is 64.

Which results are given for `CCCCCCCCCC(=O)N[C@@H](Cc1c[nH]c2ccccc12)C(=O)NC(CC(N)=O)C(=O)N[C@@H](CC(=O)O)C(=O)N[C@@H]1C(=O)NCC(=O)N[C@@H](CCCN)C(=O)N[C@@H](CC(=O)O)C(=O)N[C@H](C)C(=O)N[C@@H](CC(=O)O)C(=O)NCC(=O)N[C@H](CO)C(=O)N[C@@H]([C@H](C)CC(=O)O)C(=O)N[C@@H](CC(=O)c2ccccc2N)C(=O)O[C@@H]1C` (single isomer, unassigned)?
fold change (FC) (Enterococcus faecium): 10; fold change (FC) (Staphylococcus aureus [10]): 10; fold change (FC) (Enterococcus faecalis): 10

With `CCCCCCCCCC(=O)N[C@@H](Cc1c[nH]c2ccccc12)C(=O)N[C@@H](CC(N)=O)C(=O)N[C@@H](CC(N)=O)C(=O)N[C@@H]1C(=O)NCC(=O)N[C@@H](CCCN)C(=O)N[C@@H](CC(=O)O)C(=O)N[C@H](C)C(=O)N[C@@H](CC(=O)O)C(=O)NCC(=O)N[C@H](CO)C(=O)N[C@@H](CCC(=O)O)C(=O)N[C@@H](CC(=O)c2ccccc2N)C(=O)O[C@@H]1C` as the molecule, how does the “fold change (FC)” value (Bacillus subtilis [2]) read?
Its value is 27.

With `CCCCCCCCCC(=O)N[C@@H](Cc1c[nH]c2ccccc12)C(=O)N[C@@H](CC(N)=O)C(=O)N[C@@H](CC(=O)O)C(=O)N[C@@H]1C(=O)NCC(=O)N[C@@H](CCCN)C(=O)N[C@@H](CC(=O)O)C(=O)N[C@H](C)C(=O)N[C@@H](CC(=O)O)C(=O)NCC(=O)N[C@H](CO)C(=O)N[C@@H](CCC(=O)O)C(=O)N[C@@H](Cc2c[nH]c3ccccc23)C(=O)O[C@@H]1C` as the molecule, how does the “fold change (FC)” value (Bacillus subtilis [2]) read?
Its value is 33.
